Measured values reported in patent publication US20140296346A1, “Crystalline Forms of (-)-(1R,2R)-3-(3-dimethylamino-1-ethyl-2-methylpropyl)-phenol hydrochloride” (priority 2004, published 2014).
Counter-ions that a name gives are not always drawn.

Legend:
[1] = Stability of the crystalline form under ambient conditions
[2] = Variable temperature X-ray powder diffraction experiment; type: physicochemical; conditions: variable temperature XRPD
Experimental: Variable Temperature X-Ray Powder Diffraction Experiment
A variable temperature X-ray powder diffraction experiment was run thereby producing Form B from Form A. Form A converted to Form B from 40-50° C. during the experiment.

SMILES	Stability at ambient conditions [1]	Stability under ambient conditions compared with Form B ([1]; relative to Form B)	Temperature at which Form A converted to Form B ([2]; on heating)	Reversibility of the polymorphic conversion ([2]; at lower temperature)
CC[C@@H](c1cccc(O)c1)[C@@H](C)CN(C)C [Form A, (-)-(1R,2R)-3-(3-dimethylamino-1-ethyl-2-methylpropyl)-phenol hydrochloride]	very stable	more stable	40-50 °C	
CC[C@@H](c1cccc(O)c1)[C@@H](C)CN(C)C.Cl [Form B, (-)-(1R,2R)-3-(3-dimethylamino-1-ethyl-2-methylpropyl)-phenol hydrochloride]				changing over into Form A at lower temperature
